Results: patent US20050061967A1, “Pattern recognition of whole cell mass spectra” (priority 2003, published 2005)

Assays:
Test in all cases: MIC of antibiotics, antibiotic resistance profile of Salmonella enterica isolates
Type in all cases: cell-based
[1] = tested on: Salmonella enterica serotype Worthington isolates
From the text: (§1) To identify charge state of each ion cluster, we performed the following analyses on twenty-nine Salmonella enterica isolates (21 of serotype Heidelberg, 3 Anatum, 3 Worthington and 2 Muenster) from a turkey production environment. From the high mass end of the spectrum, we divided each ion peak by 2 or 3, look there for a corresponding peak. Ions at small integer dividends are then tabulated together with the largest, assumed to be a+1 charge state. Based on the assigned charge state, sum intensities (in the raw spectra) arising from nearby adducts or losses were calculated at their charge-state-predicted interval. The total around each same-charge-state cluster were added to the total for the same biomarker at its other identified charge states. Spectra were smoothed, the background was subtracted and then peaks were detected. Deconvolution was based on peaks at least 3% intensity of the base peak.
(§2) The Salmonella enterica isolates were also typed by their antibiotic resistance and Pulsed-Field Gel Electrophoresis (PFGE) patterns. The isolates'=0 resistance profile, a common and obviously important phenotypic assay, was determined for twenty antibiotics commonly used in veterinary medicine to control Salmonella infections. PFGE is the most common and widely accepted genotypic method currently in use. The PFGE patterns were analyzed by statistical pattern recognition to produce a dendrogram in which similar gel patterns are clustered so that they appear in or near the same branch of a similarity “tree.” Then the two types of mass spectra for the same twenty-nine samples, under several variations, were also evaluated by pattern recognition.

[2] = tested on: Salmonella enterica serotype Muenster isolates
From the text: as §1, §2

[3] = tested on: Salmonella enterica serotype Heidelberg isolates
Description: as §2

[4] = tested on: Salmonella enterica serotype Anatum isolates
From the text: as §1, §2

[5] = 29th of 29 isolates (ID printed 9)
[6] = 6th of 29 isolates (ID cell blank)
[7] = 9th of 29 isolates (ID cell blank)
[8] = 7th of 29 isolates (ID cell blank)
[9] = 18th of 29 isolates (ID printed 8)
[10] = 22nd of 29 isolates (ID printed 2)
[11] = 1st of 29 isolates (ID cell blank), turkey production environment
[12] = 2nd of 29 isolates (ID cell blank)
[13] = 3rd of 29 isolates (ID cell blank)

Measured: MIC

CC[C@H]1OC(=O)[C@H](C)[C@@H](O[C@H]2C[C@@](C)(OC)[C@@H](O)[C@H](C)O2)[C@H](C)[C@@H](O[C@@H]2O[C@H](C)C[C@H](N(C)C)[C@H]2O)[C@](C)(O)C[C@@H](C)C(=O)[C@H](C)[C@@H](O)[C@]1(C)O [Er]
512 µg/mL: [2]; 28th of 29 isolates (ID printed 8) | [3]; 4th of 29 isolates (ID cell blank) | [3]; 8th of 29 isolates (ID cell blank) | [3]; [7] | [3]; 10th of 29 isolates (ID 0) | [3]; 11th of 29 isolates (ID 1) | [3]; 13th of 29 isolates (ID 3) | [3]; 14th of 29 isolates (ID 4) | [3]; 15th of 29 isolates (ID 5) | [3]; 20th of 29 isolates (ID 0)
64 µg/mL: [1]; 26th of 29 isolates (ID 6)
32 µg/mL: [2]; [5]
>512 µg/mL: [3]; [6]

CN[C@@H]1[C@H](O)[C@H](NC)[C@H]2O[C@@]3(O)C(=O)C[C@@H](C)O[C@H]3O[C@@H]2[C@H]1O [Spt]
>512 µg/mL: [3]; [6] | [3]; [8] | [3]; [7] | [3]; 10th of 29 isolates (ID 0) | [3]; 11th of 29 isolates (ID 1) | [3]; 13th of 29 isolates (ID 3) | [3]; 14th of 29 isolates (ID 4) | [3]; 15th of 29 isolates (ID 5) | [3]; 16th of 29 isolates (ID 6) | [3]; [9] | [3]; 20th of 29 isolates (ID 0) | [3]; 21st of 29 isolates (ID 1) | [3]; [10] | [3]; 24th of 29 isolates (ID 4)

CN[C@@H]1[C@H](O[C@H]2[C@H](O[C@H]3[C@H](O)[C@@H](O)[C@H](N=C(N)N)[C@@H](O)[C@@H]3N=C(N)N)O[C@@H](C)[C@]2(O)C=O)O[C@@H](CO)[C@H](O)[C@H]1O [St]
256 µg/mL: [4]; [11] | [4]; [12] | [4]; [13]
>256 µg/mL: [2]; [5] | [3]; [6] | [3]; [8] | [3]; [7] | [3]; 10th of 29 isolates (ID 0) | [3]; 11th of 29 isolates (ID 1) | [3]; 13th of 29 isolates (ID 3) | [3]; 14th of 29 isolates (ID 4) | [3]; 15th of 29 isolates (ID 5) | [3]; 16th of 29 isolates (ID 6) | [3]; [9] | [3]; 20th of 29 isolates (ID 0) | [3]; 21st of 29 isolates (ID 1) | [3]; [10] | [3]; 24th of 29 isolates (ID 4)

CN(C)C1C(O)=C(C(N)=O)C(=O)C2(O)C(O)=C3C(=O)c4c(O)cccc4C(C)(O)C3CC12 (stereo not drawn) [Te]
128 µg/mL: [3]; 5th of 29 isolates (ID cell blank)
512 µg/mL: [4]; [11]
256 µg/mL: [4]; [12] | [4]; [13] | [3]; 10th of 29 isolates (ID 0) | [3]; 24th of 29 isolates (ID 4)
32 µg/mL: [1]; 17th of 29 isolates (ID printed 7) | [1]; 26th of 29 isolates (ID 6) | [1]; 27th of 29 isolates (ID printed 7)
